Measured values from patent US6903100B2, “USE OF REGULARLY SCHEDULED HIGH DOSE INTRAVENOUS METHOTREXATE THERAPY, WITH INTERIM ADMINISTRATION OF IMMUNOMODULATORY AGENTS, TO TREAT MULTIPLE SCLEROSIS AND OTHER DISEASES OF THE CENTRAL NERVOUS SYSTEM” (MidAmerica Neuroscience Research Foundation, priority 2001, dated 2005).
Several values for one entry are separate records, joined by “and”; a condition that tells them apart may be missing. Identical values can stand only once.

Columns and labels:
[1] = cited from earlier work; for crossing of the blood brain barrier (BBB) into the CNS: in vivo
[2] = test system: MS; CNS lymphomas; conditions: cited from earlier work
[3] = test system: relapsing progressive MS; experiment: MSFC clinical outcome (9-HPT, 25-ft walk, PASAT) in patients treated with bimonthly high dose IV methotrexate; type: in vivo; set-up: 9-HPT change / 25-ft walk change: unit not given here
Experimental: Ten patients of relapsing progressive MS were treated with bimonthly high dose intravenous methotrexate with leucovorin rescue, combined with interim treatment with low dose immunomodulatory agents.
(§1) Methotrexate treatments were given every 2 months for up to 6 treatments. Methotrexate was administered by IV at a dosage of 1 g/m^2 for the first three treatments. […] The patients were then switched to doses of 2 g/m^2 of methotrexate for three subsequent treatments. Methotrexate was given after hydration and alkalization, with urine pH 7.0 or greater. The infusion was followed by continued hydration for several hours.
(§2) Each methotrexate treatment was followed by intravenous leucovorin rescue with 50 mg leucovorin eight hours after the start of the methotrexate infusion. Oral leucovorin (25 mg) was administered every 6 hours for a total of 12 doses after intravenous leucovorin rescue, and the serum methotrexate level measured. If necessary oral leucovorin was continued until the serum level reached 0.05 μM.
At the time of study entry, all patients were being treated, with interferon (AVONEX® or BETA-SERON®), glatiramer acetate (COPAXONE®), or oral methotrexate. These medications were continued between treatments.
The clinical outcome was determined by MSFC scores at baseline and at two months follow up visits after each treatment. The MSFC is a clinical outcome measure, which measures three clinical functions involving hand dexterity, walking, and cognition. Two tailed paired t-test was used to compare the results of MSFC.

[4] = Safety of high dose IV methotrexate with leucovorin rescue in MS patients; type: in vivo
Experimental: as §1, §2

[5] = Methotrexate in cerebrospinal fluid (CSF) after infusion; type: in vivo; conditions: five CSF samples, several patients and time points after infusion of 2 g/m^2
Experimental: Five samples of cerebrospinal fluid (CSF) were analyzed for methotrexate, representing several patients and several time points after methotrexate infusion of 2 g/m^2.

[6] = after one year of treatment, ten patients
[7] = all patients together, two tailed paired t-test
[8] = all patients together, two tailed paired t-test, p<0.05
[9] = individual patient, change from baseline after one year, IV 1 g/m^2 x3 then 2 g/m^2 x3, every 2 months, leucovorin rescue, interim agent

For `Nc1nc2c(c(=O)[nH]1)N(C=O)C(CNc1ccc(C(=O)N[C@@H](CCC(=O)O)C(=O)O)cc1)CN2` (some centres unmarked) [leucovorin], the “crossing of the blood brain barrier (BBB) into the CNS” value (“crossing of the blood brain barrier” for short) [1] is listed as “does not penetrate the BBB”.
For `O=P1(N(CCCl)CCCl)NCCCO1` (centres unmarked) [cyclophosphamide], the “efficacy against the progression of MS” value ([2]; in vivo) is given as “some efficacy” and the “crossing of the blood brain barrier” value [1] is given as “do not cross the blood brain barrier”.
For `CN(Cc1cnc2nc(N)nc(N)c2n1)c1ccc(C(=O)N[C@@H](CCC(=O)O)C(=O)O)cc1` [Methotrexate, methotrexate], the “toxicity of high dose in CNS lymphoma trials” value ([2]; in vivo, iv) is given as “low toxicity”, the “toxicity of high dose sporadically administered” value ([2]; in vivo, iv) is given as “no significant toxicity” and the “toxicity of low-dose oral treatment in progressive MS” value ([2]; in vivo, po) is given as “minimal toxicity”. For the same compound, the “upper extremity strength in MS patients” value ([2]; oral treatments) was “mild improvement”, the “serum level relative to crossing the BBB” value ([1]; administered orally) was “not sufficient to cross the BBB in cytotoxic amounts” and the “MSFC scores of some of the patients” value ([3]; after 3 treatments at 1 g/m^2) was “improved significantly”. For the same compound, the “maximum increase of overall MSFC” value [3, 6] was “+1.28”, the “minimum increase of overall MSFC” value [3, 6] was “+0.08” and the “clinical assessment with MSFC scores” value ([3]; after treatment) was “significant improvement”. For the same compound, the “improvement in the 25-ft walk test” value [3, 7] was “not significant”, the “improvement in the PASAT test” value [3, 7] was “not significant” and the “mean nine-hole peg score after treatment” value [3, 8] was “significant improvement”. The “mean overall MSFC score after treatment” value [3, 8] was “significant improvement”, the 9-HPT change [3, 9] was “+0.45 and +0.86 and −0.31 and +0.20 and +0.83 and +0.30 and −0.10 and +0.80 and +1.07 and +0.70” and the 25-ft walk change [3, 9] was “+0.04 and 0.00 and −0.01 (2×) and +0.08 and +0.14 and −0.04 and −0.07 and −0.22 and +0.53”. The MSFC change [3, 9] was “+0.38 and +0.31 and +0.25 and +0.18 and +0.13 and +0.09 and +0.08 (2×) and +1.28 and +0.56”, the PASAT change [3, 9] was “+0.66 and +0.08 and +1.08 and +0.25 and −0.58 and 0.00 and +0.41 and −0.33 and +2.24 and +0.99” and the “PASAT (cognitive function): patients improved” value ([3]; of 10) was 6 patients. The “PASAT (cognitive function): patients turned worse” value ([3]; of 10) was 2, the “PASAT (cognitive function): patients unchanged” value ([3]; of 10) was 2 and the “nine-hole peg test (arm function): patients improved” value ([3]; of 10) was 8 patients. The “nine-hole peg test (arm function): patients unchanged” value ([3]; of 10) was 1, the “nine-hole peg test (arm function): patients with minor worsening” value ([3]; of 10) was 1 patient and the “timed 25-ft walk (leg function): patients unchanged” value ([3]; of 10) was 7. The “timed 25-ft walk (leg function): patients with improvement” value ([3]; of 10) was 2 patients, the “timed 25-ft walk (leg function): patients with slight worsening” value ([3]; of 10) was 1 and the “patients improved on MSFC” value ([3]; of 10, after one year, change >+0.1) was “seven”. For the same compound, the “patients unchanged on MSFC” value ([3]; of 10, after one year, change less than 0.1) was “three”, the “deterioration of symptoms of progressive MS” value ([3]; periodic high dose with leucovorin rescue and interim treatments) was “halted the deterioration of the symptoms in every patient treated” and the tolerability ([4]; IV 1 g/m^2, first three treatments) was “well tolerated”. For the same compound, the renal toxicity ([4]; after one treatment, 2-week follow up creatinine clearance within acceptable limits) was “one patient experienced Grade I renal toxicity”, the alopecia ([4]; ten patients) was “No alopecia was noted” and the hematological toxicity ([4]; ten patients, up to 6 treatments) was “No hematological toxicity was observed”. For the same compound, the nausea ([4]; ten patients, easily treated with Zofran) was “Five patients experienced some nausea” and the “crossing of the BBB (methotrexate in CSF)” value [5] was “cross the BBB in cytotoxic amounts”.
In the case of `O=C1c2c(O)ccc(O)c2C(=O)c2c(NCCNCCO)ccc(NCCNCCO)c21` [mitoxantrone], the “efficacy against the progression of MS” value ([2]; in vivo) is given as “some efficacy”, the toxicity limiting use ([2]; in vivo) is given as “limited lifetime use due to toxicity” and the “crossing of the blood brain barrier” value [1] is given as “do not cross the blood brain barrier”.
